According to patent US20100093662A1, “NOVEL AMPHIPHILIC CYCLODEXTRIN DERIVATIVES” (CENTRE NATIONAL DE LA RECHERCHE SCIENTIFIQUE-CNRS-, priority 2006, published 2010):

Tests used:
plasmid pTG11236 = assay: Electrophoretic analysis of nanoparticles of DNA (agarose gel, ethidium bromide); format: binding; conditions: for accessibility of the DNA at the intercalation by ethidium bromide: N/P ratio=5, plasmid pTG11236
Description: The plasmid pTG11236 (pCMV-SV40-luciferase-SV40 pA), used in the preparation of DNA complexes and for transfection tests is a plasmid with 5739 pairs of bases. The quantities of compounds used are calculated to obtain a DNA concentration of 0.1 mg·mL^−1 (303 μM in phosphate equivalent) and the desired Nitrogen/Phosphate (N/P) ratios. Tests for values of N/P=5, 10, 30 and 50 were carried out both for compound no. 8 and for compound no. 16. As a reference transfection formulation (positive control), we used polyplexes formulated with the same plasmid and the polycationic polymer polyethyleneimine (branched PEI, 25 kDa), and naked DNA as a negative control.
For the preparation of the complexes, the DNA is diluted in HEPES (20 mM, pH 7.4) until a final concentration of 303 μM in phosphate equivalent, then the quantity of compound no. 8 or no. 16 necessary, obtained from a stock solution of 20 mg·mL^−1 in DMSO-water 1:2 (v/v) is added in order to obtain the desired N/P ratio. For the PEI, a 0.1M stock solution in water is used. The mixtures are vortexed for 10 sec and used in the characterisation and for the transfection tests, as described below.
10 μl of each formulation of complexes prepared as mentioned above are diluted once in the loaded buffer (glycerol+bromophenol blue+Tris-acetate-EDTA or TAE). 1 μl of this solution are deposited on a gel with 8% agarose. The rest of the sample is diluted once with a decomplexing solution with 8% sodium dodecyl sulfate (SDS) in TAE, then 10 μl are also deposited on a gel. The electrophoresis is carried out for […] at 50V. The gel is then developed with ethidium bromide (Sigma) in TAE ([…] of a solution of ethidium bromide with a concentration of 10 mg·mL^−1 in 200 mL of TAE). The DNA is also visualised and photographed with an UV transilluminator. FIGS. 2 and 3 are photos of electrophoretic analyses, carried out on agarose gel in the presence of ethidium bromide, of DNA complexes/nanoparticles obtained with compound no. 8 according to an N/P ratio of 5, 10, 30 and 50 respectively.

BNL-CL2 cells [1] = assay: In vitro transfection of nanoparticles of DNA, luciferase assay; format: cell-based, Murine; conditions: 0.5 μg of DNA per well (FIG. 6: N/P=10)
Description: (§1) Murine embryo cells BNL-CL2 are grown in 96-well plates until a density of 2×10^4 cells/well in a DMEM culture medium (Dulbelcco's Modified Eagle Medium, Gibco-BRL) containing 10% foetal calf serum (SVF; Sigma) at 37° C. in a humid atmosphere with a proportion of 5% CO2/95% air.
(§2) The complexes between compound no. 8, no. 16 or polyethyleneimine (PEI), and plasmid pTG11236 are diluted in 100 μl of DMEM so as to obtain 0.5 μg of DNA in the well.
(§3) The culture medium is removed and replaced by 100 μl of solution of nanoparticle complex/DNA in DMEM. After 4 hrs and 24 hrs, 50 and 100 μL of DMEM containing 30% and 10% of FCS, respectively, are added. After 48 hrs, the transfection is stopped, the culture medium is removed and the cells are washed with PBS (2×100 μL), then lysed with 50 μL of lysis buffer (Promega, Charbonnières, France). The lysates are frozen at −32° C. until the luciferase and protein assay.
The luciferase assay is used to assess the efficacy of transfection. This assay is based on a chimioluminescence reaction whose principle is based on oxydation by luciferase of its substrate (luciferine) with concomitant production of a photon. The activity of the luciferase is measured with a Biolumat LB96P WMP100 apparatus (BERTHOLD) for 10 sec after the injection of 50 μl of reagent containing luciferine (Prmèga assay kit) in each well containing 10 μl of cell extract. […]

BNL-CL2 cells [2] = assay: Cell viability after transfection (BCA protein assay); format: cell-based, Murine; conditions: for cell viability compared with PEI/DNA polyplexes at the same N/P ratios: N/P ratios>10; for cell viability after transfection: complexes with pTG11236, N/P 5 to 50, 0.5 μg plasmid/well
Description: as §1, §2, §3
The protein assay is based on the BCA test (Pierce). The protein assay is carried out on 15 μl of cell lysate to which are added 300 μl of Pierce reagent (BCA Protein Assay Reagent). It consists of a colorimetric assay which is carried out with UV/visible MRX spectrophotometry (DYNEX Technologies). For each assay, a standard series is carried out with BSA (Bovine Serum Albumin, BIO-RAD), of 0 to 30 μg per well. The reading is taken at 570 nm, after 30 […] at ambient temperature. With this standard BSA series, the OD may be expressed in mg of protein/well.
The ratio of the quantities of proteins corresponding to the transfected and non transfected (100% cell viability) cells is used to assess the cell viability of the complexes (expressed in %).
All of the formulations are tested at least 3 times. The results obtained were processed using STATGRAPHICS Plus5.1 software (trade mark). Anova analysis of variance is carried out on the values of the efficacies of transfection (LoglO(fg luciferase/mg protein)) and on the cell viability. It is possible to analyse the impact (on the transfection or cell viability) of the variation of one or several factors by applying a mono- or multifactorial analysis of variance, respectively. The method used to compare the means is the HSD (honestly significant difference) intervals by Tukey.

[3] = Size and polydispersion of white homogenous nanospheres (quasi-elastic diffusion of light), physical stability over time; format: physicochemical
Description: The method used to prepare white homogenous nanospheres consists in introducing an organic phase of acetone (or tetrahydrofurane) and an amphiphilic cyclodextrin derivative from the invention (1 mg·mL^−1) in an aqueous phase of equivalent volume or a double volume (distilled water), under magnetic stirring (500 r.p.m.) at 25° C. After nanoprecipitation, the organic solvent is eliminated under reduced pressure at +35° C. The aqueous suspension presenting an opalescent to milky appearance (according to the products used) is then concentrated until the final volume desired is obtained, then filtered on a 0.8 μm filter (Millex AA, Millipore, France).
The colloid suspensions are then characterised as regards the granulometry (mean size and polydisperion) and, when they incorporate loaded amphiphilic cyclodextrins, by their zeta potential. The characterisation is carried out using the following methods:
The quasi-elastic diffusion of light is used. A Zetasizer 3000 apparatus equipped with a K7132 correlator (Malvern Instruments, RU) was used. The conditions for measurement are as follows: angle of detection 90°, temperature 25±0.1° C., apparent viscosity 0.89 mPa·s. Before measuring the size, samples are diluted in distilled water if necessary. The hydrodynamic diameter (mean Z) and polydispersion index (PI) of the nanoparticles in suspension are calculated in intensity by the cumulant method by carrying out 3 measurements on the same sample. The value of the hydrodynamic diameter is calculated using the measurement of the translational coefficient of diffusion of particles with Brownian movement. An NanoZS apparatus (Malvern Instruments) was also used to measure the size of the nanocapsules. In the same way, the samples are diluted before measurement, if necessary in water added to Montanox 80 (trade mark).
The studies on the physical stability of particles were carried out over periods ranging from 1 month to 8 months. The corresponding data for a series of amphiphilic cyclodextrins in the invention are indicated in Table 1 providing the granulometric characteristics (mean size and polydispersion index or mean PI), with evolution over time, of different homogenous nanospheres derived from the compounds indicated in the left column, the reference number for said compounds corresponding to those of the compounds described in the above examples.

Mean size ± standard deviation (n = 3) ([3]; initial)	PI (polydispersion index) ([3]; initial)	Compound	accessibility of the DNA at the intercalation by ethidium bromide (plasmid pTG11236)	cell viability compared with PEI/DNA polyplexes at the same N/P ratios (BNL-CL2 cells [2])	cell viability after transfection (BNL-CL2 cells [2])	IP (polydispersion index) ([3]; 3 months)	Mean size ± standard deviation (n = 3) ([3]; 3 months)	IP (polydispersion index) ([3]; 6 months)	Mean size ± standard deviation (n = 3) ([3]; 6 months)	other results
		CCCCCC(=O)O[C@@H]1[C@@H](OC(=O)CCCCC)[C@H]2O[C@H]3[C@H](OC(=O)CCCCC)[C@@H](OC(=O)CCCCC)[C@@H](O[C@H]4[C@H](OC(=O)CCCCC)[C@@H](OC(=O)CCCCC)[C@@H](O[C@H]5[C@H](OC(=O)CCCCC)[C@@H](OC(=O)CCCCC)[C@@H](O[C@H]6[C@H](OC(=O)CCCCC)[C@@H](OC(=O)CCCCC)[C@@H](O[C@H]7[C@H](OC(=O)CCCCC)[C@@H](OC(=O)CCCCC)[C@@H](O[C@H]8[C@H](OC(=O)CCCCC)[C@@H](OC(=O)CCCCC)[C@@H](O[C@@H]1[C@@H](CSCCNC(=S)NCCN)O2)O[C@@H]8CSCCNC(=S)NCCN)O[C@@H]7CSCCNC(=S)NCCN)O[C@@H]6CSCCNC(=S)NCCN)O[C@@H]5CSCCNC(=S)NCCN)O[C@@H]4CSCCNC(=S)NCCN)O[C@@H]3CSCCNC(=S)NCCN.Cl.Cl.Cl.Cl.Cl.Cl.Cl [compound no. 16, heptakis[6-desoxy-6-(2-(N′-(2-aminoethyl)thioureido)ethylthio)-2,3-di-O-hexanoyl]cyclomaltoheptaose heptachlorhydrate]	no longer accessible	significantly higher	excellent					levels of transfection compared with N/P 10 polyplexes formulated with PEI (BNL-CL2 cells [1]): equal; levels of transfection, times higher than those with naked DNA (BNL-CL2 cells [1]): about 10,000 times
100 ± 20 nm	0.06	CCCCCC(=O)OC1C2OC(CO)C(OC3OC(CO)C(OC4OC(CO)C(OC5OC(CO)C(OC6OC(CSCCNC(=S)NCCSCC7OC8OC9C(CO)OC(OC%10C(CO)OC(OC%11C(CO)OC(OC%12C(CO)OC(OC%13C(CO)OC(OC%14C(CO)OC(OC7C(O)C8O)C(O)C%14O)C(O)C%13O)C(O)C%12O)C(O)C%11O)C(O)C%10O)C(O)C9O)C(OC7OC(CO)C(OC8OC(CO)C(O2)C(OC(=O)CCCCC)C8OC(=O)CCCCC)C(OC(=O)CCCCC)C7OC(=O)CCCCC)C(OC(=O)CCCCC)C6OC(=O)CCCCC)C(OC(=O)CCCCC)C5OC(=O)CCCCC)C(OC(=O)CCCCC)C4OC(=O)CCCCC)C(OC(=O)CCCCC)C3OC(=O)CCCCC)C1OC(=O)CCCCC (stereo not shown) [compound no. 26]								
171 ± 9 nm	0.03	heptakis(6-azido-6-desoxy-2,3-di-0-myristoyl)cyclomaltoheptaose [compound no. 6]				0.06	157 ± 8 nm	0.04	198 ± 12 nm	
		heptakis[6-(2-aminoethylthio)-6-desoxy-2,3-di-O-hexanoyl]cyclomaltoheptaose heptachlorhydrate [compound no. 8]	partially accessible	significantly higher	excellent					complexation of the DNA (absence of DNA bands) (plasmid pTG11236; N/P ratio≧10, plasmid pTG11236): total complexation
72 ± 32 nm	0.31	heptakis[6-desoxy-2,3-di-0-myristoyl-6-(2-isothiocyanatoethylthio)]cyclomaltoheptaose [compound no. 12]								

Compound	Mean size ± standard deviation (n = 3) ([3]; initial)	PI (polydispersion index) ([3]; initial)	accessibility of the DNA at the intercalation by ethidium bromide (plasmid pTG11236)	cell viability compared with PEI/DNA polyplexes at the same N/P ratios (BNL-CL2 cells [2])	cell viability after transfection (BNL-CL2 cells [2])	IP (polydispersion index) ([3]; 3 months)	Mean size ± standard deviation (n = 3) ([3]; 3 months)	IP (polydispersion index) ([3]; 6 months)	Mean size ± standard deviation (n = 3) ([3]; 6 months)	other results
heptakis[6-(2-tert-butoxycarbonylaminoethylthio)-6-desoxy-2,3-di-O-myristoyl]cyclomaltoheptaose [compound no. 10]	212 ± 14 nm	0.11				0.07	207 ± 1 nm	0.32	269 ± 64 nm	
